Assay results taken from article PMC5218480 (PLoS ONE, 2017).

System: MV-4-11 cells
Test: Gene expression microarray analysis (Affymetrix PrimeView) and GSEA
Type: cell-based, human
Parameters: RFU PODN (11730768_x_at) / Fold change /veh PODN (11730768_x_at) / RFU LINC00158 (11744669_a_at) / Fold change /veh LINC00158 (11744669_a_at) / RFU DUSP10 (11751237_a_at) / Fold change /veh DUSP10 (11751237_a_at) / RFU ID3 (11757404_x_at) / Fold change /veh ID3 (11757404_x_at) / RFU PLEKHG5 (11737974_s_at) / Fold change /veh PLEKHG5 (11737974_s_at) / RFU LRRC4B (11730491_at) / Fold change /veh LRRC4B (11730491_at) / RFU GIMAP4 (11747438_a_at) / Fold change /veh GIMAP4 (11747438_a_at) / RFU KRT8 (11758183_x_at) / Fold change /veh KRT8 (11758183_x_at) / RFU CNN1 (11734310_a_at) / Fold change /veh CNN1 (11734310_a_at) / RFU VPS37D (11726825_at) / Fold change /veh VPS37D (11726825_at) / RFU C10orf10 (11716522_x_at) / Fold change /veh C10orf10 (11716522_x_at) / RFU KIR2DL2 /// KIR2DL4 /// KIR2DL5A /// KIR2DL5B /// KIR2DS1 /// KIR2DS2 /// KIR2DS3 /// KIR2DS4 /// KIR3DL3 /// KIR3DL3 /// KIR3DS1 (11738374_at) / Fold change /veh KIR2DL2 /// KIR2DL4 /// KIR2DL5A /// KIR2DL5B /// KIR2DS1 /// KIR2DS2 /// KIR2DS3 /// KIR2DS4 /// KIR3DL3 /// KIR3DL3 /// KIR3DS1 (11738374_at) / RFU C1QL1 (11718748_at) / Fold change /veh C1QL1 (11718748_at) / RFU TMPRSS4 (11747572_a_at) / Fold change /veh TMPRSS4 (11747572_a_at) / RFU HAMP (11756126_x_at) / Fold change /veh HAMP (11756126_x_at) / RFU RNFT2 (11725882_a_at) / Fold change /veh RNFT2 (11725882_a_at) / RFU NR4A2 (11747474_a_at) / Fold change /veh NR4A2 (11747474_a_at) / RFU ABCC12 (11746883_a_at) / Fold change /veh ABCC12 (11746883_a_at) / RFU TMEM136 (11760407_x_at) / Fold change /veh TMEM136 (11760407_x_at) / RFU CLDN22 /// WWC2 (11732394_at) / Fold change /veh CLDN22 /// WWC2 (11732394_at) / RFU HLA-DPB1 (11760878_x_at) / Fold change /veh HLA-DPB1 (11760878_x_at) / RFU SPINT1 (11716480_a_at) / Fold change /veh SPINT1 (11716480_a_at) / RFU GAP43 (11754022_s_at) / Fold change /veh GAP43 (11754022_s_at) / RFU A4GNT (11735810_at) / Fold change /veh A4GNT (11735810_at) / RFU PRB3 (11715151_x_at) / Fold change /veh PRB3 (11715151_x_at) / RFU TUBB4B (11761932_at) / Fold change /veh TUBB4B (11761932_at) / RFU CAPN14 (11732068_a_at) / Fold change /veh CAPN14 (11732068_a_at) / RFU TMCC2 (11721928_a_at) / Fold change /veh TMCC2 (11721928_a_at) / RFU IRGQ (11745062_a_at) / Fold change /veh IRGQ (11745062_a_at) / RFU FAM174B (11720279_a_at) / Fold change /veh FAM174B (11720279_a_at) / RFU TMPRSS4 (11748680_a_at) / Fold change /veh TMPRSS4 (11748680_a_at) / RFU FAM212B (11763350_a_at) / Fold change /veh FAM212B (11763350_a_at) / RFU PLEKHG5 (11743358_a_at) / Fold change /veh PLEKHG5 (11743358_a_at) / RFU ZSCAN30 (11745921_a_at) / Fold change /veh ZSCAN30 (11745921_a_at) / RFU CMKLR1 (11741424_a_at) / Fold change /veh CMKLR1 (11741424_a_at) / RFU LOC101060620 /// MAPK8IP1 (11723275_at) / Fold change /veh LOC101060620 /// MAPK8IP1 (11723275_at) / RFU SPTSSB (11747773_x_at) / Fold change /veh SPTSSB (11747773_x_at) / RFU PRSS12 (11739890_at) / Fold change /veh PRSS12 (11739890_at) / RFU BIN1 (11741810_x_at) / Fold change /veh BIN1 (11741810_x_at) / RFU WNT11 (11732464_a_at) / Fold change /veh WNT11 (11732464_a_at) / RFU C10orf10 (11716521_a_at) / Fold change /veh C10orf10 (11716521_a_at) / RFU C5orf56 (11738089_at) / Fold change /veh C5orf56 (11738089_at) / RFU CYB561 (11721691_x_at) / Fold change /veh CYB561 (11721691_x_at) / RFU ANKRD19P (11752326_a_at) / Fold change /veh ANKRD19P (11752326_a_at) / RFU OR2T12 /// OR2T33 /// OR2T8 (11738714_s_at) / Fold change /veh OR2T12 /// OR2T33 /// OR2T8 (11738714_s_at) / RFU VCAN (11748164_a_at) / Fold change /veh VCAN (11748164_a_at) / RFU JSRP1 (11732532_at) / Fold change /veh JSRP1 (11732532_at) / RFU KRTAP10-11 (11738290_x_at) / Fold change /veh KRTAP10-11 (11738290_x_at) / RFU MYO3A (11730013_a_at) / Fold change /veh MYO3A (11730013_a_at) / RFU EBF3 (11725865_a_at) / Fold change /veh EBF3 (11725865_a_at) / RFU CAMK2N1 (11719241_x_at) / Fold change /veh CAMK2N1 (11719241_x_at) / RFU C5orf56 (11738088_a_at) / Fold change /veh C5orf56 (11738088_a_at) / RFU OLFML3 (11715873_a_at) / Fold change /veh OLFML3 (11715873_a_at) / RFU LOC100653217 /// NTM (11731650_a_at) / Fold change /veh LOC100653217 /// NTM (11731650_a_at) / RFU MAPK11 (11762145_a_at) / Fold change /veh MAPK11 (11762145_a_at) / RFU FIZ1 (11724087_x_at) / Fold change /veh FIZ1 (11724087_x_at) / RFU OASL (11726364_x_at) / Fold change /veh OASL (11726364_x_at) / RFU SOX15 (11748057_x_at) / Fold change /veh SOX15 (11748057_x_at) / RFU CD79A (11719716_a_at) / Fold change /veh CD79A (11719716_a_at) / RFU HIST1H1D (11736915_at) / Fold change /veh HIST1H1D (11736915_at) / RFU CASKIN2 (11723855_a_at) / Fold change /veh CASKIN2 (11723855_a_at) / RFU LOC730098 (11760151_x_at) / Fold change /veh LOC730098 (11760151_x_at) / RFU OR4N2 (11742367_at) / Fold change /veh OR4N2 (11742367_at) / RFU PRRT2 (11749266_a_at) / Fold change /veh PRRT2 (11749266_a_at) / RFU SNX32 (11753110_a_at) / Fold change /veh SNX32 (11753110_a_at) / RFU CDHR5 (11726645_a_at) / Fold change /veh CDHR5 (11726645_a_at) / RFU RCAN1 (11760418_a_at) / Fold change /veh RCAN1 (11760418_a_at) / RFU FAM167A (11723789_a_at) / Fold change /veh FAM167A (11723789_a_at) / RFU FAM26E (11764081_at) / Fold change /veh FAM26E (11764081_at) / RFU ISYNA1 (11749810_s_at) / Fold change /veh ISYNA1 (11749810_s_at) / RFU ACY1 (11761880_at) / Fold change /veh ACY1 (11761880_at) / RFU 11764098_at / Fold change /veh 11764098_at / RFU SAMD14 (11745864_x_at) / Fold change /veh SAMD14 (11745864_x_at) / RFU NPB (11741838_a_at) / Fold change /veh NPB (11741838_a_at) / RFU TMPRSS6 (11731388_a_at) / Fold change /veh TMPRSS6 (11731388_a_at) / RFU KRTAP10-2 (11738614_at) / Fold change /veh KRTAP10-2 (11738614_at) / RFU ARHGAP8 /// PRR5-ARHGAP8 (11727945_x_at) / Fold change /veh ARHGAP8 /// PRR5-ARHGAP8 (11727945_x_at) / RFU KRTAP5-7 /// NADSYN1 (11734609_at) / Fold change /veh KRTAP5-7 /// NADSYN1 (11734609_at) / RFU RASL12 (11751679_a_at) / Fold change /veh RASL12 (11751679_a_at) / RFU CDKN2B (11736163_a_at) / Fold change /veh CDKN2B (11736163_a_at) / RFU PRF1 (11729649_at) / Fold change /veh PRF1 (11729649_at) / RFU, ZNF638 /// ZNF638-IT1 / Fold change vs veh, ZNF638 /// ZNF638-IT1 / RFU, PANK3 / Fold change vs veh, PANK3 / RFU, SH3YL1 / Fold change vs veh, SH3YL1 / RFU, ZEB2 / Fold change vs veh, ZEB2 / RFU, NRIP1 / Fold change vs veh, NRIP1 / RFU, PTTG1IP / Fold change vs veh, PTTG1IP / RFU, CAPN2 / Fold change vs veh, CAPN2 / RFU, MED14 / Fold change vs veh, MED14 / RFU, SNORA58 / Fold change vs veh, SNORA58 / RFU, C1orf63 / Fold change vs veh, C1orf63 / RFU, LRRFIP1 / Fold change vs veh, LRRFIP1 / RFU, NDUFAF7 / Fold change vs veh, NDUFAF7 / RFU, SLC12A2 / Fold change vs veh, SLC12A2 / RFU, IBTK / Fold change vs veh, IBTK / RFU, ESF1 / Fold change vs veh, ESF1 / Fold change vs veh, TMEM50B / RFU, TAOK1 / Fold change vs veh, TAOK1 / RFU, ACBD3 / Fold change vs veh, ACBD3 / RFU, TMA16 / Fold change vs veh, TMA16 / RFU, RWDD3 / Fold change vs veh, RWDD3 / RFU, BCAT1 / Fold change vs veh, BCAT1 / RFU, EDEM3 / Fold change vs veh, EDEM3 / RFU, TMEM33 / Fold change vs veh, TMEM33 / RFU, WDR75 / Fold change vs veh, WDR75 / RFU, AHCTF1 / Fold change vs veh, AHCTF1 / RFU, TFRC / Fold change vs veh, TFRC / RFU, ZDHHC17 / Fold change vs veh, ZDHHC17 / RFU, NOM1 / Fold change vs veh, NOM1 / RFU, ARL8B / Fold change vs veh, ARL8B / RFU, ZBTB11 / Fold change vs veh, ZBTB11 / RFU, TAMM41 / Fold change vs veh, TAMM41 / RFU, KIAA1704 /// LOC100996395 / Fold change vs veh, KIAA1704 /// LOC100996395 / RFU, ING1 / Fold change vs veh, ING1 / RFU, TRMT61B / Fold change vs veh, TRMT61B / RFU, FUBP3 / Fold change vs veh, FUBP3 / RFU, TP53 / Fold change vs veh, TP53 / RFU, TNKS2 / Fold change vs veh, TNKS2 / RFU, ZFP14 / Fold change vs veh, ZFP14 / RFU, ACTR2 / Fold change vs veh, ACTR2 / RFU, PPP3R1 / Fold change vs veh, PPP3R1 / RFU, PIK3R1 / Fold change vs veh, PIK3R1 / RFU, HNRNPA1 / Fold change vs veh, HNRNPA1 / RFU, RNF170 / Fold change vs veh, RNF170 / RFU, ZNF28 / Fold change vs veh, ZNF28 / RFU, RNGTT / Fold change vs veh, RNGTT / RFU, OGT / Fold change vs veh, OGT / RFU, BRD1 / Fold change vs veh, BRD1 / RFU, MARS / Fold change vs veh, MARS / RFU, ZNF655 / Fold change vs veh, ZNF655 / RFU, FAHD1 / Fold change vs veh, FAHD1 / RFU, BDP1 / Fold change vs veh, BDP1 / RFU, LRRCC1 / Fold change vs veh, LRRCC1 / RFU, ARID1A / Fold change vs veh, ARID1A / RFU, ZNF146 / Fold change vs veh, ZNF146 / RFU, ZNF330 / Fold change vs veh, ZNF330 / RFU, GPN3 / Fold change vs veh, GPN3 / RFU, C9orf123 / Fold change vs veh, C9orf123 / RFU, N4BP2L2 / Fold change vs veh, N4BP2L2 / RFU, ARFIP1 / Fold change vs veh, ARFIP1 / RFU, FAM179B / Fold change vs veh, FAM179B / RFU, BCL10 / Fold change vs veh, BCL10 / RFU, UHRF1BP1L / Fold change vs veh, UHRF1BP1L / RFU, BET1 / Fold change vs veh, BET1 / RFU, CNOT2 / Fold change vs veh, CNOT2 / RFU, ZNF268 / Fold change vs veh, ZNF268 / Fold change vs veh, ZNF507 / RFU, DGCR2 / Fold change vs veh, DGCR2 / RFU, WDSUB1 / Fold change vs veh, WDSUB1 / Fold change vs veh, HSP90B1 /// MIR3652 / RFU, ADSS / Fold change vs veh, ADSS / RFU, GK / Fold change vs veh, GK / RFU, ZNF148 / Fold change vs veh, ZNF148 / RFU, TAF9 / Fold change vs veh, TAF9 / RFU, SLC1A5 / Fold change vs veh, SLC1A5 / RFU, SLMO2 / Fold change vs veh, SLMO2 / RFU, ABCC4 / Fold change vs veh, ABCC4 / RFU, LOC101060439 /// RAP1B / Fold change vs veh, LOC101060439 /// RAP1B / RFU, RFX7 / Fold change vs veh, RFX7 / RFU, GTPBP10 / Fold change vs veh, GTPBP10 / RFU, CNEP1R1 / Fold change vs veh, CNEP1R1 / RFU, BIVM-ERCC5 /// ERCC5 / Fold change vs veh, BIVM-ERCC5 /// ERCC5 / RFU, ILF3 / Fold change vs veh, ILF3 / RFU 11762660_at / Fold change /veh 11762660_at / RFU VCAN (11757783_s_at) / Fold change /veh VCAN (11757783_s_at) / RFU DDX43 (11728927_at) / Fold change /veh DDX43 (11728927_at) / RFU KRT8 (11758188_x_at) / Fold change /veh KRT8 (11758188_x_at) / RFU NKD1 (11759106_at) / Fold change /veh NKD1 (11759106_at) / RFU SRD5A1 (11742802_a_at) / Fold change /veh SRD5A1 (11742802_a_at) / RFU TPSAB1 /// TPSB2 (11721975_s_at) / Fold change /veh TPSAB1 /// TPSB2 (11721975_s_at) / RFU GSTM3 (11746129_a_at) / Fold change /veh GSTM3 (11746129_a_at) / RFU IL23R (11737362_x_at) / Fold change /veh IL23R (11737362_x_at) / RFU TMEM51 (11727254_a_at) / Fold change /veh TMEM51 (11727254_a_at) / RFU PIWIL2 (11732686_x_at) / Fold change /veh PIWIL2 (11732686_x_at) / RFU ORM1 (11744905_x_at) / Fold change /veh ORM1 (11744905_x_at) / RFU CCDC152 (11743942_at) / Fold change /veh CCDC152 (11743942_at) / RFU ECM1 (11717891_a_at) / Fold change /veh ECM1 (11717891_a_at) / RFU IL23R (11748794_a_at) / Fold change /veh IL23R (11748794_a_at) / RFU TNFAIP8L3 (11732012_x_at) / Fold change /veh TNFAIP8L3 (11732012_x_at) / RFU MBOAT4 (11741988_at) / Fold change /veh MBOAT4 (11741988_at) / RFU 11764193_at / Fold change /veh 11764193_at / RFU TMEM53 (11763286_at) / Fold change /veh TMEM53 (11763286_at) / RFU MAGEB2 (11727129_at) / Fold change /veh MAGEB2 (11727129_at) / RFU TMEM200A (11744735_a_at) / Fold change /veh TMEM200A (11744735_a_at) / RFU CCDC152 (11751479_a_at) / Fold change /veh CCDC152 (11751479_a_at) / RFU FAM211A (11726209_a_at) / Fold change /veh FAM211A (11726209_a_at) / RFU RGS16 (11746705_a_at) / Fold change /veh RGS16 (11746705_a_at) / RFU VCAN (11755009_s_at) / Fold change /veh VCAN (11755009_s_at) / RFU RHOB (11743442_s_at) / Fold change /veh RHOB (11743442_s_at) / RFU RGS16 (11720943_a_at) / Fold change /veh RGS16 (11720943_a_at) / RFU RGS16 (11720944_at) / Fold change /veh RGS16 (11720944_at) / RFU, VPS4B / Fold change vs veh, VPS4B / RFU, CREB1 / Fold change vs veh, CREB1 / RFU, DNAJC13 / Fold change vs veh, DNAJC13 / RFU, GNAQ / Fold change vs veh, GNAQ / RFU, CDK5R1 / Fold change vs veh, CDK5R1 / RFU, ZRANB3 / Fold change vs veh, ZRANB3 / RFU, CUL4A / Fold change vs veh, CUL4A / RFU, CCNY / Fold change vs veh, CCNY / RFU, UFL1 / Fold change vs veh, UFL1 / RFU, COG3 / Fold change vs veh, COG3 / RFU, DIAPH2 / Fold change vs veh, DIAPH2 / RFU, SKA2 / Fold change vs veh, SKA2 / RFU, AFF3 / Fold change vs veh, AFF3 / RFU, LMF1 / Fold change vs veh, LMF1 / RFU, IPO11 / Fold change vs veh, IPO11 / RFU, DFFB / Fold change vs veh, DFFB / RFU, FOXP1 / Fold change vs veh, FOXP1 / RFU, CARD8 / Fold change vs veh, CARD8 / RFU, STRN3 / Fold change vs veh, STRN3 / RFU, ADK / Fold change vs veh, ADK / RFU, RASSF2 / Fold change vs veh, RASSF2 / RFU, WIPF1 / Fold change vs veh, WIPF1 / RFU, LARP1B / Fold change vs veh, LARP1B / RFU, RASA1 / Fold change vs veh, RASA1 / RFU, RB1 / Fold change vs veh, RB1 / RFU, PPFIA1 / Fold change vs veh, PPFIA1 / RFU, MAT2A / Fold change vs veh, MAT2A / RFU, CCT5 / Fold change vs veh, CCT5 / RFU, WDR92 / Fold change vs veh, WDR92 / RFU, CUX1 / Fold change vs veh, CUX1 / RFU, TTC7A / Fold change vs veh, TTC7A / RFU, TMEM135 / Fold change vs veh, TMEM135 / RFU, DEPTOR / Fold change vs veh, DEPTOR / RFU, CPM / Fold change vs veh, CPM / RFU, DNAJB6 / Fold change vs veh, DNAJB6 / RFU, CACNA2D3 / Fold change vs veh, CACNA2D3 / RFU, DTX4 / Fold change vs veh, DTX4 / RFU, TFCP2 / Fold change vs veh, TFCP2 / RFU, GMCL1 /// GMCL1P1 / Fold change vs veh, GMCL1 /// GMCL1P1 / RFU, AEBP2 / Fold change vs veh, AEBP2 / RFU, SNHG1 /// SNORD22 /// SNORD25 /// SNORD26 /// SNORD27 /// SNORD28 /// SNORD29 /// SNORD31 / Fold change vs veh, SNHG1 /// SNORD22 /// SNORD25 /// SNORD26 /// SNORD27 /// SNORD28 /// SNORD29 /// SNORD31 / Fold change (Aza/veh), C12orf56 (ProbeSet 11735607_a_at) / Fold change (ACY-1035/veh), C12orf56 (ProbeSet 11735607_a_at) / Fold change (Aza/veh), FGFR1OP (ProbeSet 11751329_s_at) / Fold change (ACY-1035/veh), FGFR1OP (ProbeSet 11751329_s_at) / Fold change (Aza/veh), VPS36 (ProbeSet 11739960_a_at) / Fold change (ACY-1035/veh), VPS36 (ProbeSet 11739960_a_at) / RFU SYPL1 (11715823_x_at) / Fold change /veh SYPL1 (11715823_x_at) / RFU IGFBP7 (11715501_s_at) / Fold change /veh IGFBP7 (11715501_s_at) / RFU REEP3 (11722064_at) / Fold change /veh REEP3 (11722064_at) / RFU IGLL1 (11728026_x_at) / Fold change /veh IGLL1 (11728026_x_at): dose or concentration left out as unconfirmed
Conditions: ProbeSet 11739696_s_at; LIST D

SMILES: Nc1ccc(-c2cccs2)cc1NC(=O)c1ccc2c(c1)cc(C1CC1)n2CCN1CCOCC1 [ACY-1035]
- Fold change vs veh, AFF3: 1.00
